The values below come from patent publication US8629168B2, “Benzoxazoles and oxazolopyridines being useful as janus kinases inhibitors” (priority 2006, dated 2014).

One data set addresses T1, GST-JAK2 (Homo sapiens, UniProt O60674).
T1 construct: the amino acid domain ASP751-VAL1129 of the JAK2 protein
Description: JAK2 kinase assay of the general description (alternative method, flash plate). The following applies: 1.0 μM ATP, read-out: IC50 with test in general description (named “alternative method to that given in the examples”) (“flash plate”). It counts as biochemical.

The target in the next data set is T2, GST-JAK2(808-1132) (Homo sapiens, UniProt O60674).
T2 construct: GST-JAK2(808-1132) is purchased from Invitrogen; purchased Invitrogen (Carlsbad, USA) #4288
T2 sequence (O60674 808-1132): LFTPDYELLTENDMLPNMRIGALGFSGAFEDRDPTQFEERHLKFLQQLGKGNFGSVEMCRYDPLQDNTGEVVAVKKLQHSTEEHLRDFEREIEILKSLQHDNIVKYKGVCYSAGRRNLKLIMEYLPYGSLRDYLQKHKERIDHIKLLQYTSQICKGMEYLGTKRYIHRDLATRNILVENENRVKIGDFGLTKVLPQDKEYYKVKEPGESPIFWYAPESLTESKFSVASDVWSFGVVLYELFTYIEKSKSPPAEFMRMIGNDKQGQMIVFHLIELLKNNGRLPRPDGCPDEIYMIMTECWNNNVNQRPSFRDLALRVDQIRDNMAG
Nature of the data set: EPK JAK/TYK-kinase family profiling assay (Caliper mobility shift), JAK2. Type of data set: biochemical. Particulars: Caliper mobility shift assay of Example 187, 20 μM ATP, read-out: IC50 with Test in present Example. In outline:
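Caliper mobility-shift assay with the GST-tagged kinase domain and a fluorescently labeled peptide substrate plus ATP, run 60 min at 30° C and then stopped with EDTA buffer. Turnover was taken as the substrate/product ratio. Compounds were tested at eight final concentrations from 10 to 0.003 μM.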

T1 sequence (O60674 751-1129): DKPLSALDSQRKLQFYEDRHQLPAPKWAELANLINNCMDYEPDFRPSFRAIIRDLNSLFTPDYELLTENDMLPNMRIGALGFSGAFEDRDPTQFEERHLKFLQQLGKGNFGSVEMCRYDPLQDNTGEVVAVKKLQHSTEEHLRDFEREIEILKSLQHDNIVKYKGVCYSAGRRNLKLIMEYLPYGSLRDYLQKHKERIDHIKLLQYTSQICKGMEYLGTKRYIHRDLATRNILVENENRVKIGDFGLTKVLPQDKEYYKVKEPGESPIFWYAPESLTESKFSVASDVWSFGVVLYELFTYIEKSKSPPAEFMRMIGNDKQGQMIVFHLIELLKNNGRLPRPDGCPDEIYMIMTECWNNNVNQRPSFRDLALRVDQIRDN

`COc1cc(Nc2nc3cccc(-c4ccc(C(N)=O)cc4)c3o2)cc(OC)c1OC` [Example 16, 4-[2-(3,4,5-Trimethoxy-phenylamino)-benzooxazol-7-yl]-benzamide] gave a melting point above 280 °C. Moreover, the half-maximal inhibitory concentration (IC50) on GST-JAK2 stood at 93 nM. The IC50 at GST-JAK2(808-1132) was 35 nM.
